The results in this text go back to patent publication US20240368194A1, “IRAK4 DEGRADATION AGENT, AND PREPARATION METHOD THEREFOR AND USE THEREOF” (SHANGHAI LEADINGTAC PHARMACEUTICAL CO. LTD., priority 2021, published 2024).

The structures appear in SMILES notation.

Sequence of IRAK4 protein in THP-1 cells (Q9NWZ3 whole entry): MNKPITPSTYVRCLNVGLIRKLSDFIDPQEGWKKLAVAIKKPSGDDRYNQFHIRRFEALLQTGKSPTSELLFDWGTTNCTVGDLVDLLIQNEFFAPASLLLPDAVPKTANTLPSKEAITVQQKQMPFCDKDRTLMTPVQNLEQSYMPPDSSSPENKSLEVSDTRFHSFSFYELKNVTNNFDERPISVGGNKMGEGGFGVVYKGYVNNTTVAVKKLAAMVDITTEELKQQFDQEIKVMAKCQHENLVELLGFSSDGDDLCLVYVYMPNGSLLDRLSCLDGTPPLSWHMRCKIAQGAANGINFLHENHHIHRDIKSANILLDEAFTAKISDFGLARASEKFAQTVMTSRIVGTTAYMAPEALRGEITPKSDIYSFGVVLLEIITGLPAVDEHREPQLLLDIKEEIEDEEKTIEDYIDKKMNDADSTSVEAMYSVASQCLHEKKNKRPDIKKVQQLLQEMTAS

This assay concerns the target IRAK4 protein in THP-1 cells (Homo sapiens (Human), UniProt Q9NWZ3). In words: Degradation of IRAK4 in THP-1 cells, human IRAK4 AlphaLISA assay. Type of assay: cell-based. Conditions: 24 h incubation. The protocol: THP-1 cells (Stem Cell Bank, Chinese Academy of Sciences) were inoculated onto a 24-well cell culture plate at 0.95 mL/well, with a cell density of 5×10^5 cells/well. The cell plate was incubated overnight in a 37° C., 5% carbon dioxide incubator, and 50 μL of a solution of a compound in dimethyl sulfoxide was added, such that the final concentration of the compound fell within the range of 0.03-3000 nM. After another 24 h of incubation, cells were collected into 1.5 mL centrifuge tubes and centrifuged at 1000 rpm at 4° C. for 5 min. The cell pellets were washed twice with 1×DPBS. The resuspended cells were lysed with 200 μL of lysis buffer (Western and IP cell lysis buffer (Beyotime), supplemented with 1 mM phenylmethylsulfonyl fluoride and protease inhibitor cocktail (Beyotime)), left to stand on ice for 30 mini, and then centrifuged at 14,000 g at 4° C. for 10 min. The supernatant samples were assayed by Western Blot for IRAK4 protein levels.
The above cell lysates were also tested for IRAK4 degradation using a human IRAK4 AlphaLISA assay kit (PerkinElmer, AL3117C). The method is specifically as follows: 2-μL test samples of cell lysate supernatant were transferred to a white 384-well plate (PerkinElmer, 6007299), and 4 μL of 5× anti-IRAK4 receptor beads (PerkinElmer, final concentration of 10 μg/mL) was then added. The plate was incubated at 23° C. for 30 min. Then 4 μL of 5× biotin-labeled anti-IRAK4 antibody (PerkinElmer, final concentration of 1 nM) was added, and the plate was incubated at 23° C. for 60 min. Finally, 10 μL of 2′ streptavidin-labeled donor beads (final concentration of 40 μg/mL) was added to each well, and the plate was incubated in the dark at 23° C. for 30 min. After the incubation was complete, AlphaLISA signal values were measured on a microplate reader EnVision (PerkinElmer, 2105) in the AlphaScreen standard mode, and IRAK4 concentrations were calculated from these signal values. Then a non-linear curve fitting of logarithmic concentration-inhibition rate was performed using GraphPad Prism 7, and the DC50 and Dmax values of the compound were obtained.
`Cc1nn([C@H]2CC[C@H](CN3CCC4(CC3)CCN(C(=O)c3ccc(Cl)c(N5CCC(=O)NC5=O)c3)CC4)CC2)cc1NC(=O)c1cnn2ccc(N3C[C@H]4C[C@@H]3CO4)nc12` [Example 7, 5-((1R,4R)-2-oxa-5-azabicyclo[2.2.1]heptan-5-yl)-N-(1-((1R,4R)-4-((9-(4-chloro-3-(2,4-dioxotetrahydropyrimidin-1(2H)-yl)benzoyl)-3,9-diazaspiro[5.5]undecan-3-yl)methyl)cyclohexyl)-3-methyl-1H-pyrazol-4-yl)pyrazolo[1,5-a]pyrimidine-3-carboxamide] yielded a DC50 of 148 nM and a Dmax of 76.4%.
`COc1cc2nn([C@H]3CC[C@](O)(COCC4CCN(C(=O)c5ccc(Cl)c(N6CCC(=O)NC6=O)c5)CC4)CC3)cc2cc1NC(=O)c1cccc(C(F)(F)F)n1` [Example 8, N-(2-((1S,4S)-4-(((1-(4-chloro-3-(2,4-dioxotetrahydropyrimidin-1(2H)-yl)benzoyl)piperidin-4-yl)methoxy)methyl)-4-hydroxycyclohexyl)-6-methoxy-2H-indol-5-yl)-6-(trifluoromethyl)pyridinecarboxamide]: it took 8.8 nM to reach half-maximal degradation (DC50) and the Dmax came out at 86.8%.
Compound `COc1cc2nn([C@H]3CC[C@](O)(COCCC4CCN(C(=O)c5ccc(Cl)c(N6CCC(=O)NC6=O)c5)CC4)CC3)cc2cc1NC(=O)c1cccc(C(F)(F)F)n1` [Example 10] returned a DC50 of 2.8 nM and a Dmax of 99.3%.
`CN(CCC1CCN(C(=O)c2ccc(Cl)c(N3CCC(=O)NC3=O)c2)CC1)C[C@H]1CC[C@H](n2cc(NC(=O)c3cnn4ccc(N5C[C@H]6C[C@@H]5CO6)nc34)c(C(F)F)n2)CC1` [Example 11, 5-((1R,4R)-2-oxa-5-azabicyclo[2.2.1]heptan-5-yl)-N-(1-((1R,4R)-4-(((2-(1-(4-chloro-3-(2,4-dioxotetrahydropyrimidin-1(2H)-yl)benzoyl)piperidin-4-yl)ethyl)(methyl)amino)methyl)cyclohexyl)-3-(difluoromethyl)-1H-pyrazol-4-yl)pyrazolo[1,5-a]pyrinidine-3-carboxamide]: half-maximal degradation (DC50) was put at 12.7 nM and the Dmax came to 90.7%.
The like results for `COc1cc2nn([C@H]3CC[C@](O)(CN(C)CC4CCC5(CC4)CCN(C(=O)c4ccc(Cl)c(N6CCC(=O)NC6=O)c4)CC5)CC3)cc2cc1NC(=O)c1cccc(C(F)(F)F)n1` [Example 17] were, in that order, 10.4 nM and 99.4%.
The like results for `COc1cc2nn([C@H]3CC[C@@](COCCC4CCN(C(=O)c5ccc(Cl)c(N6CCC(=O)NC6=O)c5)CC4)(OC)CC3)cc2cc1NC(=O)c1cccc(C(F)(F)F)n1` [Example 22, N-(2-((1S,4S)-4-((2-(1-(4-chloro-3-(2,4-dioxotetrahydropyrimidin-1(2H)-yl)benzoyl)piperidin-4-yl)ethoxy)methyl)-4-methoxycyclohexyl)-6-methoxy-2H-indazol-5-yl)-6-(trifluoromethyl)pyridinecarboxamide] were, in that order, 3.42 nM and 96.5%.
The like results for `O=C1CCN(c2cc(C(=O)N3CCC4(CCN(C[C@H]5CC[C@H](n6cc(NC(=O)c7cnn8ccc(N9CCOCC9)nc78)c(C(F)F)n6)CC5)CC4)CC3)ccc2Cl)C(=O)N1` [Example 29, N-(1-((1R,4R)-4-((9-(4-chloro-3-(2,4-dioxotetrahydropyrimidin-1(2H)-yl)benzoyl)-3,9-diazaspiro[5.5]undecan-3-yl)methyl)cyclohexyl)-3-(difluoromethyl)-1H-pyrazol-4-yl)-5-morpholinopyrazolo[1,5-a]pyrimidine-3-carboxamide] were, in that order, 2.75 nM and 98.5%.
In turn, `CN(CCC1CCN(C(=O)c2ccc(Cl)c(N3CCC(=O)NC3=O)c2)CC1)C[C@H]1CC[C@H](n2cc(NC(=O)c3cnn4ccc(N5CCOCC5)nc34)c(C(F)F)n2)CC1` [Example 30, N-(1-((1R,4R)-4-(((2-(1-(4-chloro-3-(2,4-dioxotetrahydropyrimidin-1(2H)-yl)benzoyl)piperidin-4-yl)ethyl)(methyl)amino)methyl)cyclohexyl)-3-(difluoromethyl)-1H-pyrazol-4-yl)-5-morpholinopyrazolo[1,5-a]pyrimidine-3-carboxamide] displayed a DC50 of 5.23 nM and a Dmax of 90.1%.
For `CN(CCC1CCN(C(=O)c2ccc(Cl)c(N3CCC(=O)NC3=O)c2)CC1)C[C@H]1CC[C@H](n2cc(NC(=O)c3cnn4ccc(N5CC6CCC(C5)O6)nc34)c(C(F)F)n2)CC1` [Example 31, 5-(8-oxa-3-azabicyclo[3.2.1]octan-3-yl)-N-(1-((1R,4R)-4-(((2-(1-(4-chloro-3-(2,4-dioxotetrahydropyrimidin-1(2H)-yl)benzoyl)piperidin-4-yl)ethyl)(methyl)amino)methyl)cyclohexyl)-3-(difluoromethyl)-1H-pyrazol-4-yl)pyrazolo[1,5-a]pyrimidine-3-carboxamide], in that order: 6.1 nM and 91.1%.
The like results for `O=C1CCN(c2cc(C(=O)N3CCC4(CCN(C[C@H]5CC[C@H](n6cc(NC(=O)c7cnn8ccc(N9CC%10CCC(C9)O%10)nc78)c(C(F)F)n6)CC5)CC4)CC3)ccc2Cl)C(=O)N1` [Example 32, 5-(8-oxa-3-azabicyclo[3.2.1]octan-3-yl)-N-(1-((1R,4R)-4-((9-(4-chloro-3-(2,4-dioxotetrahydropyrimidin-1(2H)-yl)benzoyl)-3,9-diazaspiro[5.5]undecan-3-yl)methyl)cyclohexyl)-3-(difluoromethyl)-1H-pyrazol-4-yl)pyrazolo[1,5-a]pyrimidine-3-carboxamide] were, in that order, 3.46 nM and 90.5%.
`COc1ccc(C(=O)N2CCC(CCN(C)C[C@H]3CC[C@H](n4cc(NC(=O)c5cnn6ccc(N7CCC[C@H](O)C7)nc56)c(C(F)F)n4)CC3)CC2)cc1N1CCC(=O)NC1=O` [Example 35, N-(3-(difluoromethyl)-1-((1R,4S)-4-(((2-(1-(3-(2,4-dioxotetrahydropyrimidin-1(2H)-yl)-4-methoxybenzoyl)piperidin-4-yl)ethyl)(methyl)amino)methyl)cyclohexyl)-1H-pyrazol-4-yl)-5-((S)-3-hydroxypiperidin-1-yl)pyrazolo[1,5-a]pyrimidine-3-carboxamide]: half-maximal degradation (DC50) was put at 0.78 nM and the Dmax is 100%.
The like results for `COc1ccc(C(=O)N2CCC(CCN(C)C[C@H]3CC[C@H](n4cc(NC(=O)c5cnn6ccc(N7CCC[C@H](N)C7)nc56)c(C(F)F)n4)CC3)CC2)cc1N1CCC(=O)NC1=O` [Example 36, 5-((S)-3-aminopiperidin-1-yl)-N-(3-(difluoromethyl)-1-((1R,4S)-4-(((2-(1-(3-(2,4-dioxotetrahydropyrimidin-1(2H)-yl)-4-methoxybenzoyl)piperidin-4-yl)ethyl)(methyl)amino)methyl)cyclohexyl)-1H-pyrazol-4-yl)pyrazolo[1,5-a]pyrimidine-3-carboxamide] were, in that order, 3.45 nM and 96%.
For `COc1ccc(C(=O)N2CCC(CCN(C)C[C@H]3CC[C@H](n4cc(NC(=O)c5cnn6ccc(N7CC8(COC8)C7)nc56)c(C(F)F)n4)CC3)CC2)cc1N1CCC(=O)NC1=O` [Example 39, N-(3-(difluoromethyl)-1-((1R,4R)-4-(((2-(1-(3-(2,4-dioxotetrahydropyrimidin-1(2H)-yl)-4-methoxybenzoyl)piperidin-4-yl)ethyl)(methyl)amino)methyl)cyclohexyl)-1H-pyrazol-4-yl)-5-(2-oxa-6-azaspiro[3.3]heptan-6-yl)pyrazolo[1,5-a]pyrimidine-3-carboxamide], in that order: 10.9 nM and 93.9%.
The like results for `Cc1ccc(C(=O)N2CCC3(CCN(C[C@H]4CC[C@H](n5cc(NC(=O)c6cnn7ccc(N8CCC[C@H](O)C8)nc67)c(C(F)F)n5)CC4)CC3)CC2)cc1N1CCC(=O)NC1=O` [Example 45, N-(3-(difluoromethyl)-1-((1R,4S)-4-((9-(3-(2,4-dioxotetrahydropyrimidin-1(2H)-yl)-4-methylbenzoyl)-3,9-diazaspiro[5.5]undecan-3-yl)methyl)cyclohexyl)-1H-pyrazol-4-yl)-5-((S)-3-hydroxypiperidin-1-yl)pyrazolo[1,5-a]pyrimidine-3-carboxamide] were, in that order, 0.82 nM and 96.2%.
Turning to `CN(CCC1CCN(C(=O)c2ccc(Cl)c(N3CCC(=O)NC3=O)c2)CC1)C[C@H]1CC[C@H](n2cc(NC(=O)c3cnn4ccc(N5CCC[C@H](N)C5)nc34)c(C(F)F)n2)CC1` [Example 47, 5-((S)-3-aminopiperidin-1-yl)-N-(1-((1R,4S)-4-(((2-(1-(4-chloro-3-(2,4-dioxotetrahydropyrimidin-1(2H)-yl)benzoyl)piperidin-4-yl)ethyl)(methyl)amino)methyl)cyclohexyl)-3-(difluoromethyl)-1H-pyrazol-4-yl)pyrazolo[1,5-a]pyrimidine-3-carboxamide], it took 4.84 nM to reach half-maximal degradation (DC50) and the Dmax stood at 99%.
